Patent US10167262B2, “Herbicidal substituted 3-arylpyrazoles” (FMC CORPORATION, priority 2014, dated 2019)

Experiments:
Assay type in all cases: in vivo
[1] = system: waterhemp_RES2, (ALS & HPPD resistant common waterhemp, Amaranthus rudis); test: Test E postemergence greenhouse test, plant response rating 0-100; settings: scale 0 to 100
Method: At the same time, plants from these crop and weed species and also waterhemp_RES1, (ALS & Triazine resistant common waterhemp, Amaranthus rudis), and waterhemp_RES2, (ALS & HPPD resistant common waterhemp, Amaranthus rudis) were planted in pots containing Redi-Earth® planting medium (Scotts Company, 14111 Scottslawn Road, Marysville, Ohio 43041) comprising spaghnum peat moss, vermiculite, wetting agent and starter nutrients were treated with postemergence applications of test chemicals formulated in the same manner. Plants ranged in height from 2 to 18 cm for postemergence treatments (1- to 4-leaf stage).
Treated plants and controls were maintained in a greenhouse for 14 to 21 days, after which time all species were compared to controls and visually evaluated. Plant response ratings, summarized in Table E, are based on a scale of 0 to 100 where 0 is no effect and 100 is complete control. A dash (-) response means no test result.

[2] = system: ducksalad (Heteranthera limosa); test: Test B flooded paddy test, plant response rating 0-100; settings: Flood, 250 g ai/ha; scale 0 to 100 (0 no effect, 100 complete control); 13 to 15 days
Outline: (§1)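 Ratings were visual and made relative to untreated controls after 13 to 15 greenhouse days.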

[3] = system: barnyardgrass (Echinochloa crus-galli); test: as above; settings: Flood, 250 g ai/ha; scale 0 to 100 (0 no effect, 100 complete control); 13 to 15 days
Outline: as §1

[4] = system: sedge, umbrella (small-flower umbrella sedge, Cyperus difformis); test: as above; settings: Flood, 250 g ai/ha; scale 0 to 100 (0 no effect, 100 complete control); 13 to 15 days
Outline: as §1

rice (Oryza sativa) = test: as above; settings: Flood, 250 g ai/ha; scale 0 to 100 (0 no effect, 100 complete control); 13 to 15 days
Outline: as §1

[5] = system: fall panicum (Panicum dichotomiflorum); test: Test E pre-/postemergence greenhouse test, plant response rating 0-100; settings: Postemergence, scale 0 to 100
Outline: (§2)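 Pre: seeded silt loam sprayed; post: 1–4-leaf plants (2–18 cm) in peat-based mix sprayed. Formulation: non-phytotoxic solvent + surfactant. Greenhouse 14–21 d; visual rating vs controls, 0 = no effect, 100 = complete control.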

soybean (Glycine max) = test: as above; settings: Postemergence, scale 0 to 100
Outline: as §2

[6] = system: windgrass (Apera spica-venti); test: Test C postemergence greenhouse test, plant response rating 0-100; settings: for Plant response rating, Windgrass: scale 0 to 100
Outline: (§3)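 First, plants were raised in a sphagnum peat, vermiculite and nutrient medium to 1–4 leaves. Next, formulated test compounds were applied over the foliage. Finally, after 13–15 greenhouse days, injury was compared with controls and scored 0–100.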

[7] = system: winter barley (Hordeum vulgare); test: as above; settings: for Plant response rating, Barley: scale 0 to 100
Outline: as §3

[8] = system: green foxtail (Setaria viridis); test: as above; settings: for Plant response rating, Foxtail, Green: scale 0 to 100
Outline: as §3

[9] = system: downy bromegrass (Bromus tectorum); test: as above; settings: for Plant response rating, Bromegrass, Downy: scale 0 to 100
Outline: as §3

[10] = system: woolly cupgrass (Eriochloa villosa); test: as above; settings: for Plant response rating, Cupgrass, Woolly: scale 0 to 100
Outline: as §3

[11] = system: goosegrass (Eleusine indica); test: as above; settings: for Plant response rating, Goosegrass: scale 0 to 100
Outline: as §3

[12] = system: deadnettle (henbit deadnettle, Lamium amplexicaule); test: as above; settings: for Plant response rating, Deadnettle: scale 0 to 100
Outline: as §3

[13] = system: canarygrass (Phalaris minor); test: as above; settings: for Plant response rating, Canarygrass: scale 0 to 100
Outline: as §3

[14] = Panicum dichotomiflorum, post-emergence, 125 g ai/ha
[15] = Glycine max, post-emergence, 125 g ai/ha
[16] = Glycine max, post-emergence, 500 g ai/ha

## COC(OC)(c1ccccc1)c1c[nH]nc1-c1cc(Cl)cc(Cl)c1 [Compound 13, 3-(3,5-dichlorophenyl)-4-(dimethoxyphenylmethyl)-1H-pyrazole]
[1]; 125 g ai/ha
  Plant response rating, Waterhemp_RES2: 75
[1]; 500 g ai/ha
  Plant response rating, Waterhemp_RES2: 95
[2]
  Plant response rating, Ducksalad: 0
[3]
  Plant response rating, Barnyardgrass: 0
[4]
  Plant response rating, Sedge, Umbrella: 0
Rice (Oryza sativa)
  Plant response rating, Rice: 0
[5]; [14]
  pest or weed control at 125 g/ha: 0%
[5]; Panicum dichotomiflorum, post-emergence, 500 g ai/ha
  pest or weed control at 500 g/ha: 0%
Soybean (Glycine max); [15]
  plant injury at 125 g/ha: 0%
Soybean (Glycine max); [16]
  plant injury at 500 g/ha: 0%

## CCOC(OCC)(c1ccccc1)c1c[nH]nc1-c1cc(Cl)cc(Cl)c1 [Compound 14, 3-(3,5-dichlorophenyl)-4-(diethoxyphenylmethyl)-1H-pyrazole]
[1]; 31 g ai/ha
  Plant response rating, Waterhemp_RES2: 75
[1]; 62 g ai/ha
  Plant response rating, Waterhemp_RES2: 85
[1]; 125 g ai/ha
  Plant response rating, Waterhemp_RES2: 90
[1]; 250 g ai/ha
  Plant response rating, Waterhemp_RES2: 95
[1]; 500 g ai/ha
  Plant response rating, Waterhemp_RES2: 95
[2]
  Plant response rating, Ducksalad: 0
[3]
  Plant response rating, Barnyardgrass: 0
[4]
  Plant response rating, Sedge, Umbrella: 0
Rice (Oryza sativa)
  Plant response rating, Rice: 0
[5]; Panicum dichotomiflorum, post-emergence, 31 g ai/ha
  pest or weed control at 31 g/ha: 0%
[5]; Panicum dichotomiflorum, post-emergence, 62 g ai/ha
  pest or weed control at 62 g/ha: 0%
[5]; [14]
  pest or weed control at 125 g/ha: 0%
[5]; Panicum dichotomiflorum, post-emergence, 250 g ai/ha
  pest or weed control at 250 g/ha: 0%
Soybean (Glycine max); Glycine max, post-emergence, 31 g ai/ha
  plant injury at 31 g/ha: 0%
Soybean (Glycine max); Glycine max, post-emergence, 62 g ai/ha
  plant injury at 62 g/ha: 0%
Soybean (Glycine max); [15]
  plant injury at 125 g/ha: 0%
Soybean (Glycine max); Glycine max, post-emergence, 250 g ai/ha
  plant injury at 250 g/ha: 0%
Soybean (Glycine max); [16]
  plant injury at 500 g/ha: 0%

## Cn1cc(C(=NN2CCCC2)c2ccccc2)c(-c2cc(Cl)c(Cl)c(Cl)c2)n1 [Compound 25]
[6]; 62 g ai/ha
  Plant response rating (0 to 100), Windgrass: 0
[6]; 125 g ai/ha
  Plant response rating (0 to 100), Windgrass: 0
[6]; 250 g ai/ha
  Plant response rating, Windgrass: 25
[7]; 31 g ai/ha
  Plant response rating (0 to 100), Barley: 0
[7]; 62 g ai/ha
  Plant response rating (0 to 100), Barley: 0
[7]; 125 g ai/ha
  Plant response rating, Barley: 5
[7]; 250 g ai/ha
  Plant response rating, Barley: 10
[8]; 31 g ai/ha
  Plant response rating (0 to 100), Foxtail, Green: 0
[8]; 62 g ai/ha
  Plant response rating (0 to 100), Foxtail, Green: 0
[8]; 125 g ai/ha
  Plant response rating (0 to 100), Foxtail, Green: 5
[8]; 250 g ai/ha
  Plant response rating, Foxtail, Green: 15
[9]; 31 g ai/ha
  Plant response rating (0 to 100), Bromegrass, Downy: 0
[9]; 62 g ai/ha
  Plant response rating (0 to 100), Bromegrass, Downy: 0
[9]; 125 g ai/ha
  Plant response rating, Bromegrass, Downy: 0
[9]; 250 g ai/ha
  Plant response rating, Bromegrass, Downy: 0
[10]; 31 g ai/ha
  Plant response rating (0 to 100), Cupgrass, Woolly: 0
[10]; 62 g ai/ha
  Plant response rating (0 to 100), Cupgrass, Woolly: 0
[10]; 125 g ai/ha
  Plant response rating (0 to 100), Cupgrass, Woolly: 0
[10]; 250 g ai/ha
  Plant response rating, Cupgrass, Woolly: 0
[11]; 31 g ai/ha
  Plant response rating (0 to 100), Goosegrass: 0
[11]; 62 g ai/ha
  Plant response rating (0 to 100), Goosegrass: 0
[11]; 125 g ai/ha
  Plant response rating (0 to 100), Goosegrass: 0
[11]; 250 g ai/ha
  Plant response rating, Goosegrass: 0
[12]; 31 g ai/ha
  Plant response rating (0 to 100), Deadnettle: 0
[12]; 62 g ai/ha
  Plant response rating (0 to 100), Deadnettle: 0
[12]; 125 g ai/ha
  Plant response rating (0 to 100), Deadnettle: 0
[12]; 250 g ai/ha
  Plant response rating, Deadnettle: 0
[13]; 31 g ai/ha
  Plant response rating (0 to 100), Canarygrass: 0
[13]; 62 g ai/ha
  Plant response rating (0 to 100), Canarygrass: 0
[13]; 125 g ai/ha
  Plant response rating (0 to 100), Canarygrass: 0
[13]; 250 g ai/ha
  Plant response rating, Canarygrass: 5
[2]
  Plant response rating, Ducksalad: 0
[4]
  Plant response rating, Sedge, Umbrella: 70
Rice (Oryza sativa)
  Plant response rating, Rice: 0

## CCOC(OCC)(c1cccs1)c1c[nH]nc1-c1cc(Cl)cc(Cl)c1 [Compound 27]
[2]
  Plant response rating, Ducksalad: 0
[3]
  Plant response rating, Barnyardgrass: 0
[4]
  Plant response rating, Sedge, Umbrella: 0
Rice (Oryza sativa)
  Plant response rating, Rice: 0

## Cn1cc(C(=O)c2cccs2)c(-c2cc(Cl)cc(Cl)c2)n1 [Compound 17]
[1]; 31 g ai/ha
  Plant response rating, Waterhemp_RES2: 60
[1]; 62 g ai/ha
  Plant response rating, Waterhemp_RES2: 75
[1]; 125 g ai/ha
  Plant response rating, Waterhemp_RES2: 80
[1]; 250 g ai/ha
  Plant response rating, Waterhemp_RES2: 85
[1]; 500 g ai/ha
  Plant response rating, Waterhemp_RES2: 95
[6]; 62 g ai/ha
  Plant response rating (0 to 100), Windgrass: 0
[6]; 125 g ai/ha
  Plant response rating (0 to 100), Windgrass: 0
[6]; 250 g ai/ha
  Plant response rating, Windgrass: 0
[6]; 500 g ai/ha
  Plant response rating, Windgrass: 0
[7]; 62 g ai/ha
  Plant response rating (0 to 100), Barley: 0
[7]; 125 g ai/ha
  Plant response rating, Barley: 0
[7]; 250 g ai/ha
  Plant response rating, Barley: 0
[7]; 500 g ai/ha
  Plant response rating, Barley: 0
[8]; 62 g ai/ha
  Plant response rating (0 to 100), Foxtail, Green: 0
[8]; 125 g ai/ha
  Plant response rating (0 to 100), Foxtail, Green: 0
[8]; 250 g ai/ha
  Plant response rating, Foxtail, Green: 0
[8]; 500 g ai/ha
  Plant response rating, Foxtail, Green: 0
[9]; 62 g ai/ha
  Plant response rating (0 to 100), Bromegrass, Downy: 0
[9]; 125 g ai/ha
  Plant response rating, Bromegrass, Downy: 0
[9]; 250 g ai/ha
  Plant response rating, Bromegrass, Downy: 0
[9]; 500 g ai/ha
  Plant response rating, Bromegrass, Downy: 0
[10]; 62 g ai/ha
  Plant response rating (0 to 100), Cupgrass, Woolly: 0
[10]; 125 g ai/ha
  Plant response rating (0 to 100), Cupgrass, Woolly: 0
[10]; 250 g ai/ha
  Plant response rating, Cupgrass, Woolly: 0
[10]; 500 g ai/ha
  Plant response rating, Cupgrass, Woolly: 15
[11]; 62 g ai/ha
  Plant response rating (0 to 100), Goosegrass: 0
[11]; 125 g ai/ha
  Plant response rating (0 to 100), Goosegrass: 0
[11]; 250 g ai/ha
  Plant response rating, Goosegrass: 5
[11]; 500 g ai/ha
  Plant response rating, Goosegrass: 5
[12]; 62 g ai/ha
  Plant response rating (0 to 100), Deadnettle: 0
[12]; 125 g ai/ha
  Plant response rating (0 to 100), Deadnettle: 0
[12]; 250 g ai/ha
  Plant response rating, Deadnettle: 0
[12]; 500 g ai/ha
  Plant response rating, Deadnettle: 0
[13]; 62 g ai/ha
  Plant response rating (0 to 100), Canarygrass: 0
[13]; 125 g ai/ha
  Plant response rating (0 to 100), Canarygrass: 0
[13]; 250 g ai/ha
  Plant response rating, Canarygrass: 0
[13]; 500 g ai/ha
  Plant response rating, Canarygrass: 5
[5]; 31 g ai/ha
  Plant response rating, Panicum, Fall: 0
[5]; 62 g ai/ha
  Plant response rating, Panicum, Fall: 0
[5]; 125 g ai/ha
  Plant response rating, Panicum, Fall: 0
[5]; 250 g ai/ha
  Plant response rating, Panicum, Fall: 0
[5]; 500 g ai/ha
  Plant response rating, Panicum, Fall: 0
Soybean (Glycine max); 31 g ai/ha
  Plant response rating, Soybean: 0
Soybean (Glycine max); 62 g ai/ha
  Plant response rating, Soybean: 0
Soybean (Glycine max); 125 g ai/ha
  Plant response rating, Soybean: 0
Soybean (Glycine max); 250 g ai/ha
  Plant response rating, Soybean: 15
Soybean (Glycine max); 500 g ai/ha
  Plant response rating, Soybean: 20
